According to patent US20030216416A1, “Novel crystalline of n-[4-[2-(2-amino-4,7-dihydro-4oxo-3h-pyrrolo[2,3-d]pyrimidin-5-yl)ethyl]benzoyl]-l-glutamic acid and process therefor” (priority 2002, published 2003):

Columns and labels:
[1] = Stability study: solvents (water) content of crystalline form lots on storage
[2] = Stability study: total related substances of crystalline form lots on storage
[3] = accelerated conditions 30° C., 0 months
[4] = accelerated conditions 30° C., 1 month
[5] = accelerated conditions 30° C., 2 months
[6] = accelerated conditions 30° C., 3 months
[7] = accelerated conditions 30° C., 6 months

SMILES: Nc1nc2[nH]cc(CCc3ccc(C(=O)N[C@@H](CCC(=O)O)C(=O)O)cc3)c2c(=O)[nH]1 [Lot A, pemetrexed disodium]
- Solvents Results [1, 3]: 10.2% of Total
- Solvents Results [1, 4]: 10.9% of Total
- Solvents Results [1, 5]: 10.6% of Total
- Solvents Results [1, 6]: 10.7% of Total
- Solvents Results [1, 7]: 9.3% of Total
- Solvents Results ([1]; stored at 5° C., 0 months, lots A-C water and ethanol, lot D water only): 10.2% of Total
- Solvents Results ([1]; stored at 5° C., 3 months): 22.0% of Total
- Solvents Results ([1]; stored at 5° C., 6 months): 21.1% of Total
- Solvents Results ([1]; stored at 5° C., 12 months): 21.5% of Total
- Solvents Results ([1]; stored at 5° C., 18 months): 22.3% of Total
- Solvents Results ([1]; stored at 5° C., 24 months): 21.1% of Total
- change in the percent total related substances over time ([2]; 2.5 hydrate lots stored at 5° C.): did not change significantly over time
- change in the percent total related substances over time ([2]; accelerated conditions 30° C.): did change significantly over time
- Total Related Substances Results [2, 3]: 0.24% of Total
- Total Related Substances Results [2, 4]: 0.35% of Total
- Total Related Substances Results [2, 5]: 0.41% of Total
- Total Related Substances Results [2, 6]: 0.6% of Total
- Total Related Substances Results [2, 7]: 1.1% of Total
- Total Related Substances Results ([2]; stored at 5° C., 0 months): 0.24% of Total
- Total Related Substances Results ([2]; stored at 5° C., 3 months): 0.26% of Total
- Total Related Substances Results ([2]; stored at 5° C., 6 months): 0.27% of Total
- Total Related Substances Results ([2]; stored at 5° C., 12 months): 0.28% of Total
- Total Related Substances Results ([2]; stored at 5° C., 18 months): 0.4% of Total
- Total Related Substances Results ([2]; stored at 5° C., 24 months): 0.4% of Total
